One assay relates to NIH3T3. Nature of the assay: In vitro reduction of farnesylation in NIH-3T3H-ras cell line. The assay is classed as functional, cell-based. The settings on record: Mus musculus.
For assay [1], the target named is Protein farnesyltransferase (Homo sapiens, UniProt P49354+P49356). The assay is described as follows: In vitro inhibition of the human FTase-catalyzed incorporation of [3H]FPP into recombinant Ras CVIM. The assay is classed as protein-complex assay.
For assay [2], the target named is Protein farnesyl/geranylgeranyl transferase (Homo sapiens) (UniProt P49354+P49356+P53609). Nature of the assay: Selectivity ratio of IC50 Geranylgeranyl transferase to that of IC50 Farnesyltransferase. The assay is classed as protein-complex assay.
For assay [3], the target named is Geranylgeranyl transferase type I (Homo sapiens, UniProt P49354+P53609). The assay is described as follows: In vitro inhibition of the human Geranylgeranyl transferase-catalyzed incorporation of [3H]GGPP into biotinylated peptide corresponding to the C-terminal of human K-Ras. Format: protein-complex assay.

We go through 18 compounds from ChEMBL document CHEMBL1136334, “Synthesis and biological evaluation of 4-[(3-methyl-3H-imidazol-4-yl)-(2-phenylethynyl-benzyloxy)-methyl]-benzonitrile as novel farnesyltransferase inhibitor” (Bioorg Med Chem Lett, 2003).

SMILES strings stand for the structures. Some results are limits rather than exact numbers.

With `Cn1cncc1C(OCc1ccc(C#N)cc1C#Cc1cccc(O)c1)c1ccc(C#N)cc1` (centres undefined), the EC50 (in general, the concentration giving half of the maximal effect) in the assay on NIH3T3 is more than 0.1 nM. Besides, the values for the half-maximal inhibitory concentration (IC50) in assay [1] and in assay [3] were 1 nM and 1300 nM, respectively. Further, the Selectivity in assay [2] is 1300.
Regarding `Cn1cncc1C(OCc1ccc(C#N)cc1C#CCCCCO)c1ccc(C#N)cc1` (centres undefined), in the assay with NIH3T3, the EC50 stood at 20.9 nM. Moreover, the figures for the IC50 in assay [1] and in assay [3] were 1.7 nM and 1600 nM, respectively. Besides, in assay [2], the Selectivity is 941.
For `Cn1cncc1C(OCc1ccc(C#N)cc1-c1ccccc1)c1ccc(C#N)cc1` (centres undefined), the response in the assay on NIH3T3 was half-maximal at 140 nM (EC50).
As to `Cn1cncc1C(OCc1ccc(C#N)cc1/C=C/c1ccc([N+](=O)[O-])cc1)c1ccc(C#N)cc1` (centres undefined), in the assay on NIH3T3, a half-maximal response (EC50) required 2.24 nM. For the same compound, the IC50 (commonly the midpoint of a concentration-inhibition curve) was 0.61 nM in assay [1] and 110 nM in assay [3]. Moreover, in assay [2], the Selectivity is 180.
In the assay with NIH3T3, `Cn1cncc1C(OCc1ccc(C#N)cc1/C=C/c1ccccn1)c1ccc(C#N)cc1` (centres undefined) displayed an EC50 of 23.1 nM. Further, the IC50 is 1.6 nM in assay [1] and 1800 nM in assay [3]. The Selectivity in assay [2] worked out at 1120.
For `Cn1cncc1C(OCc1ccc(C#N)cc1C#CCCc1ccccc1)c1ccc(C#N)cc1` (centres undefined) the same measures were 130 nM, 1.4 nM, 540 nM and 386.
For `Cn1cncc1C(OCc1ccc(C#N)cc1C#CC1(O)CCCCC1)c1ccc(C#N)cc1` (centres undefined) the same measures were 1.93 nM, 0.87 nM, 845 nM and 971.
`Cn1cncc1C(OCc1ccc(C#N)cc1-c1ccc(C#N)cc1)c1ccc(C#N)cc1` (centres undefined) gave an EC50 in the assay on NIH3T3 of less than 0.1 nM. The IC50 in assay [1] was 1.3 nM; in assay [3] it was 9000 nM. For the same compound, in assay [2], the Selectivity worked out at 6900.
The like results for `Cn1cncc1C(OCc1ccc(C#N)cc1C#Cc1ccc([N+](=O)[O-])cc1)c1ccc(C#N)cc1` (centres undefined) were, in that order, 36 nM, 0.55 nM, 150 nM and 273.
The like results for `CCC/C=C/C=C/c1cc(C#N)ccc1COC(c1ccc(C#N)cc1)c1cncn1C` (centres undefined) were, in that order, 16.7 nM, 1.3 nM, 220 nM and 169.
For `Cn1cncc1C(OCc1ccc(C#N)cc1C#Cc1ccc(C#N)cc1)c1ccc(C#N)cc1` (centres undefined), the response in the assay with NIH3T3 was half-maximal at 11.6 nM (EC50). The results for the IC50 in assay [1] and in assay [3] were 0.63 nM and 124 nM, respectively. In addition, the Selectivity in assay [2] amounted to 196.
For `CCCCCCC#Cc1cc(C#N)ccc1COC(c1ccc(C#N)cc1)c1cncn1C` (centres undefined) the same measures were more than 0.1 nM, 0.9 nM, 160 nM and 178.
`Cn1cncc1C(OCc1ccc(C#N)cc1-c1ccc(-c2ccccc2)cc1)c1ccc(C#N)cc1` (centres undefined): in the assay with NIH3T3, the EC50 was less than 0.1 nM. The IC50 was determined as 1.1 nM in assay [1] and 150 nM in assay [3]. Further, the Selectivity in assay [2] was 136.
The like results for `Cn1cncc1C(OCc1ccc(C#N)cc1C#Cc1ccccn1)c1ccc(C#N)cc1` (centres undefined) were, in that order, more than 0.1 nM, 2.9 nM, 16000 nM and 5520.
On to `Cn1cncc1C(OCc1ccc(C#N)cc1CCC(C)(C)C)c1ccc(C#N)cc1` (centres undefined), for which a half-maximal response in the assay with NIH3T3 (EC50) required 0.54 nM. Besides, the IC50 was 0.95 nM in assay [1] and 310 nM in assay [3]. In assay [2], the Selectivity was determined as 326.
For `Cn1cncc1C(OCc1ccc(C#N)cc1C#Cc1ccccc1)c1ccc(C#N)cc1` (centres undefined), the 50% effective concentration (EC50) with NIH3T3 turned out to be 0.1 nM. In addition, the IC50 was 0.95 nM in assay [1] and 1800 nM in assay [3]. Besides, in assay [2], the Selectivity was found to be 1900.
For `Cn1cncc1C(OCc1ccc(C#N)cc1C#Cc1ccc(-c2ccccc2)cc1)c1ccc(C#N)cc1` (centres undefined) the same measures were more than 0.1 nM, 10 nM, more than 10000 nM and more than 1000.
In the case of `Cn1cncc1C(OCc1ccc(C#N)cc1C#CC(C)(C)C)c1ccc(C#N)cc1` (centres undefined), in the assay on NIH3T3, it took 76.9 nM to reach a half-maximal effect (EC50). The IC50 was determined as 0.62 nM in assay [1] and 490 nM in assay [3]. The Selectivity in assay [2] amounted to 790.
